Reference: publication PMC5986547 (Heliyon, 2018)
Like-named read-outs stand apart in the source and are kept apart here.

Legend:
[1] = target: T1, hNET (Homo sapiens, UniProt P23975); assay type: cell-based
[2] = target: T1, hNET; conditions: read-out: IC50, reuptake inhibition, hNET-HEK293 cells; mean ± S.E.M.; cell suspensions; cited from earlier work
[3] = target: T1, hNET; experiment: Reuptake inhibition assay, [3H]NE, plated hNET-HEK293 cells; assay type: cell-based
[4] = tested on: SK-N-BE(2)C cells; experiment: Uptake kinetics of [3H]NE by adherent SK-N-BE; assay type: cell-based, human; conditions: RT, 24-well plates, 163 μg of protein/well, mean ± S.E.M., N = 3
[5] = target: T2, rNET (Rattus norvegicus, UniProt Q63380); conditions: read-out: Ki, reuptake inhibition, rNET, synaptosomes; cited from earlier work
T2 sequence (Q63380 1-617): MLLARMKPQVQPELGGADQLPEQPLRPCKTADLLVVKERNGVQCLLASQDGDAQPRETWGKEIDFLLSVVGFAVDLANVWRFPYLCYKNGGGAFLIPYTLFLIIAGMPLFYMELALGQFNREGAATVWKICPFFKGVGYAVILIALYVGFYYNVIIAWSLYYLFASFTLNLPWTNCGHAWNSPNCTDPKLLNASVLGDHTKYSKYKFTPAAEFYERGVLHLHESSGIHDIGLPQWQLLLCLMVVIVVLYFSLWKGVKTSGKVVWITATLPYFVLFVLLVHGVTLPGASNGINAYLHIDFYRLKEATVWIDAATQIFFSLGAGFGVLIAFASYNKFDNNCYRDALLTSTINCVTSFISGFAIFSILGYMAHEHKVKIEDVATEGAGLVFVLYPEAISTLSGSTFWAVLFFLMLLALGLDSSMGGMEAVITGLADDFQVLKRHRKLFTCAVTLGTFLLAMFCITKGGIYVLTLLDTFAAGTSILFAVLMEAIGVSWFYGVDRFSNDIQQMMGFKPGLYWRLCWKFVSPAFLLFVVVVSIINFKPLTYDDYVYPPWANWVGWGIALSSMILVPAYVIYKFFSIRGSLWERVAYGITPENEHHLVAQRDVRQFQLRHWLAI

[6] = target: T2, rNET; assay type: biochemical; conditions: read-out: IC50, rNET, synaptosomes (in parentheses, converted from Ki)

T1 sequence (P23975 whole entry): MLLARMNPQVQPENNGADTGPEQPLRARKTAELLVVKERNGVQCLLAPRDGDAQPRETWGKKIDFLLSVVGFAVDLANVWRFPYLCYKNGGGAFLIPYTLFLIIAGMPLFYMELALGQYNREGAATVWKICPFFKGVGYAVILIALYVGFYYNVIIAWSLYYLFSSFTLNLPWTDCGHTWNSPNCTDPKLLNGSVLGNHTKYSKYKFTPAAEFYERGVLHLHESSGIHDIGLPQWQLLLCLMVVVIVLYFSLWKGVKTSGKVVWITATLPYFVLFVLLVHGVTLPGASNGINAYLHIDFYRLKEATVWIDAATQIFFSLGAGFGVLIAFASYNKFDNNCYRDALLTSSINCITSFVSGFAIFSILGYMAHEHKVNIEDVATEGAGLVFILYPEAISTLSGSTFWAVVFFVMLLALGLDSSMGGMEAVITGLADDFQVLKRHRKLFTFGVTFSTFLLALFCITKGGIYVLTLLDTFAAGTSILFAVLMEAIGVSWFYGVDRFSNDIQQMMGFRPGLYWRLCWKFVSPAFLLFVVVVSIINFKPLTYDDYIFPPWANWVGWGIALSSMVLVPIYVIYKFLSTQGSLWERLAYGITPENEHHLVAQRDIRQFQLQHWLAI

## COC(=O)[C@H]1C(c2ccc(I)cc2)C[C@@H]2CC[C@H]1N2C (stereo partly shown) [RTI-55]
[1]; ratio of IC50 values
  fold less potent in SK-N-BE(2)C cells than in rat brain synaptosomes: 6 fold
[1]; ratio of IC50 values, hNET-HEK293 data of ref 8
  fold less potent in SK-N-BE(2)C cells than in hNET-HEK293 cells: 14.4 fold
[2]
  IC50: 2.63 ± 0.76 nM

## CN1[C@H]2CC[C@@H]1[C@@H](C(=O)N1CCCC1)[C@@H](c1ccc(I)cc1)C2 [RTI-229]
[1]; ratio of IC50 values
  fold less potent in SK-N-BE(2)C cells than in rat brain synaptosomes: 38 fold

## Fc1ccc(C(OCCN2CCN(CCCc3ccccc3)CC2)c2ccc(F)cc2)cc1 [GBR12909]
[3]
  activity in hNET-HEK293 cells, in words: inactive

## [3H][C@](O)(CN)c1ccc(O)c(O)c1 [[^3H]NE, [^3H]norepinephrine]
[4]
  VMAX of [3H]NE uptake: 195 ± 13 fmol radioactivity/mg protein/min

## c1ccc(CCCN2CCN(CCOC(c3ccccc3)c3ccccc3)CC2)cc1 [GBR12935]
[5]
  Ki: 277 nM
[1]
  fold less potent in SK-N-BE(2)C cells than in hNET-HEK293 cells: 14.8 fold
  fold less potent in SK-N-BE(2)C cells than in rat brain synaptosomes: 11.6 fold
[1]; read-out: IC50, reuptake inhibition, hNET, SK-N-BE(2)C cells
  IC50: 3470 ± 150 nM
[2]
  IC50: 235 ± 53 nM
[6]
  IC50: 299 nM

## NC[C@H](O)c1ccc(O)c(O)c1 [[^3H]NE, [^3H]norepinephrine]
[4]; read-out: KM of [3H]NE uptake
  Km: 0.416 µM
